Assay results as given in publication PMC8219695 (Nature Communications, 2021).
Several values for one entry are separate records, joined by “and”; a condition that tells them apart may be missing. Equal values may be shown once.

Experiments:
mDOR [1] = biological target: T1, mDOR (Mus musculus, UniProt P32300); assay: [125I]BNtxA radioligand competition binding, mouse DOR
T1 construct: expressed in transfected cells

CD1 mice = assay: Tail-flick antinociception in CD1 mice; assay type: in vivo, mouse; details: Fig 9b; 7OH 2 mg/kg, sc; individual animals
mMOR = biological target: T2, mMOR (Mus musculus, UniProt P42866); assay: CAMYEL BRET cAMP agonist assay at mMOR; assay type: cell-based; details: for cAMP %: single replicates, source data Fig 6b
T2 construct: signal peptide (heterologous, not specified) (N); expressed in transfected cells; pcDNA3.1(+) construct made in house

hMOR [2] = biological target: T3, hMOR (Homo sapiens, UniProt P35372); assay: cell-based; details: read-out: Emax hMOR
T3 construct: expressed in transfected cells; plasmid a gift from Dr. Nevin Lambert

mDOR [3] = biological target: T1, mDOR; assay: CAMYEL BRET cAMP agonist assay at mDOR; assay type: cell-based; details: for Agonist activity of 7OH analogs at mDOR: single replicate values, Supplementary Figure 7B, listed as 7-OH-Mitragynine
hMOR [4] = biological target: T3, hMOR; assay: CAMYEL BRET cAMP agonist assay at hMOR; assay type: cell-based; details: for cAMP %: hMOR, single replicates, source data Fig 6c

T1 sequence (P32300 whole entry): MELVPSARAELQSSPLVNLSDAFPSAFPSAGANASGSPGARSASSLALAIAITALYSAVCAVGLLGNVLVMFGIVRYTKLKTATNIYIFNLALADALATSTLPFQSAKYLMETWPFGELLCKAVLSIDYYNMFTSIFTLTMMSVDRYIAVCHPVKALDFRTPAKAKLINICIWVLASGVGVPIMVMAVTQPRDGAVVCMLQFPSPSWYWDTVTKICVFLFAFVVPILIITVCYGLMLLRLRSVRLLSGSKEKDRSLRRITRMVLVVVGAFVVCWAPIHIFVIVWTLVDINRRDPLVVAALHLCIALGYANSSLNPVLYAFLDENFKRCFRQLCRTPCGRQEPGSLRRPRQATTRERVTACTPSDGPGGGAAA
T2 sequence (P42866 whole entry): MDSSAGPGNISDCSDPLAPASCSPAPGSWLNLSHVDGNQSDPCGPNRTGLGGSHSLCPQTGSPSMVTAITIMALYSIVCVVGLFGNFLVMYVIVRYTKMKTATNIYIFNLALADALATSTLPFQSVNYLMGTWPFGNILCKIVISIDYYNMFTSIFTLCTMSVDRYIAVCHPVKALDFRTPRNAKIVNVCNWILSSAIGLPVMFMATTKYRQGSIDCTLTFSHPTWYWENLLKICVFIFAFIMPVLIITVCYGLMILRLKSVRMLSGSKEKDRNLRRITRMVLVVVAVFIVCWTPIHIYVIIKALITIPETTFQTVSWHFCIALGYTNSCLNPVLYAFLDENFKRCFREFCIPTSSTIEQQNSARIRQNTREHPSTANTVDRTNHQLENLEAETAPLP
T3 sequence (P35372 whole entry): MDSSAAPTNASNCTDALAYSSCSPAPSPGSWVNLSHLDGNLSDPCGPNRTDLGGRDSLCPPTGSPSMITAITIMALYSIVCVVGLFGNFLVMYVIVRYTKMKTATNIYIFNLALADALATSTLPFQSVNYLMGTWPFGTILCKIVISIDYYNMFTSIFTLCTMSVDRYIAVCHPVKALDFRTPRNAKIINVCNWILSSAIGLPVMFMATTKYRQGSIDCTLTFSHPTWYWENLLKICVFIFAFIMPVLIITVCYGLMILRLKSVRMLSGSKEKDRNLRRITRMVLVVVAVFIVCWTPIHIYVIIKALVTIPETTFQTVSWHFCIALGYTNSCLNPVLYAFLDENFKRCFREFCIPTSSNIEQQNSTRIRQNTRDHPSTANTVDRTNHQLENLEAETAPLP

With `CC[C@@H]1CN2CC[C@@]3(O)C(=Nc4cccc(OC)c43)[C@@H]2C[C@@H]1/C(=C\OC)C(=O)OC` [7OH, 7-Hydroxymitragynine, reference compound] the Ki (mDOR [1]) was 88.5 ± 9.9 nM, the “Tail flick (%MPE)” value (CD1 mice) was 100.00 %MPE (8×) and 57.97 %MPE and 52.05 %MPE and the Tail flick latency (CD1 mice) was 10 (8×) and 7.1 and 6.5. The EC50 (mMOR) was 48 nM, the cAMP % (mMOR; Log[drug] (M) -5, mMOR) was 54.7418% and 39.306% and 62.8715% and 90.7674% and 85.3805% and 81.3701% and 80.1578% and 78.2326% and 79.4832% and the cAMP % (mMOR; Log[drug] (M) -6, mMOR) was 51.4904% and 44.0439% and 41.1377% and 71.7778% and 87.0279% and 84.9352% and 65.6946% and 62.0616% and 68.2077%. For the same molecule, the cAMP % (mMOR; Log[drug] (M) -7, mMOR) was 31.3362% and 29.5321% and 20.0587% and 64.2387% and 61.8389% and 74.7851% and 53.7172% and 48.585% and 45.7301%, the cAMP % (mMOR; Log[drug] (M) -8, mMOR) was 9.25% and 16.4555% and 10.0292% and 22.5933% and 31.4368% and 25.3107% and 17.3146% and 8.444% and 13.6716% and the cAMP % (mMOR; Log[drug] (M) -9, mMOR) was 6.25% and 5.067% and 3.569% and -0.5857% and 7.672% and -7.0867% and 8.23% and -1.022% and 10.8029%. For the same molecule, the cAMP % (mMOR; Log[drug] (M) -10, mMOR) was 12.6265% and -11.9755% and 9.001% and 8.7384% and -5.2017% and 8.648% and -2.705% and -3.188% and 5.894%, the cAMP % (mMOR; Log[drug] (M) -11, mMOR) was -0.9102% and -0.5945% and 1.505% and 10.3177% and 11.6% and 5.328% and 6.124% and -1.189% and -0.6754% and the cAMP % (mMOR; Log[drug] (M) -13, mMOR, cAMP inhibition as % of DAMGO) was 3.306% and 2.892% and -4.359% and 9.797% and 10.0834% and 11.919% and 5.129% and 4.129% and 1.2769%. The Emax (mMOR; mMOR, maximal inhibitory effect on cAMP levels relative to DAMGO) was 70%, the Emax (hMOR [2]) was ~22% and the EC50 (mDOR [3]) was 71.4 nM. The “Agonist activity of 7OH analogs at mDOR” value (mDOR [3]; Log[drug] (M) -5) was 79.5205 and 79.1947 and 68.9488 and 85.2247 and 78.2035 and 78.3957 and 62.0758 and 81.7668 and 72.4775, the “Agonist activity of 7OH analogs at mDOR” value (mDOR [3]; Log[drug] (M) -6) was 49.9165 and 58.342 and 65.4236 and 68.6722 and 65.6062 and 68.2461 and 72.0352 and 62.2673 and 61.4936 and the “Agonist activity of 7OH analogs at mDOR” value (mDOR [3]; Log[drug] (M) -7) was 29.0999 and 46.5592 and 41.3409 and 38.1857 and 36.2209 and 62.8298 and 64.7985 and 75.1004. The “Agonist activity of 7OH analogs at mDOR” value (mDOR [3]; Log[drug] (M) -8) was 17.0946 and 20.9939 and 16.1181 and 8.745 and 16.0659 and 5.863 and 49.6952 and 40.7941 and 63.5779, the “Agonist activity of 7OH analogs at mDOR” value (mDOR [3]; Log[drug] (M) -9) was 27.3274 and 1.192 and 34.2965 and 12.9525 and -4.552 and -8.401 and 25.2583 and 24.354 and 24.6431 and the “Agonist activity of 7OH analogs at mDOR” value (mDOR [3]; Log[drug] (M) -10) was 39.904 and 39.7156 and 42.1881 and 15.8228 and 9.006 and 14.7091 and 41.1226 and 23.2827 and 29.2586. The “Agonist activity of 7OH analogs at mDOR” value (mDOR [3]; Log[drug] (M) -11) was 3.455 and 6.714 and 6.951 and -3.421 and 2.4315 and 1.875 and 9.138 and 13.5385, the “Agonist activity of 7OH analogs at mDOR” value (mDOR [3]; Log[drug] (M) -13) was 3.619 and 5.368 and -8.987 and -7.007 and 2.297 and 7.3103 and -1.541 and -0.9135 and 2.455 and the Emax (mDOR [3]; read-out: Emax) was 72%. For the same molecule, the Emax (hMOR [4]) was 96%, the cAMP % (hMOR [4]; Log[drug] (M) -5) was 88.4213% and 90.605% and 95.9962% and 96.6598% and 92.1499% and 89.6322% and 104.97% and 106.65% and 107.127% and the cAMP % (hMOR [4]; Log[drug] (M) -6) was 85.9913% and 88.2699% and 100.077% and 95.6224% and 98.6028% and 95.7246% and 101.519% and 93.2699% and 100.898%. For the same molecule, the cAMP % (hMOR [4]; Log[drug] (M) -7) was 74.1823% and 79.6011% and 86.6364% and 71.3053% and 75.9463% and 78.9671% and 86.5888% and 87.8073% and 87.9307%, the cAMP % (hMOR [4]; Log[drug] (M) -8) was 47.9539% and 40.673% and 45.9228% and 28.5173% and 37.309% and 37.8989% and 36.8098% and 40.2437% and 43.4509% and the cAMP % (hMOR [4]; Log[drug] (M) -9) was -5.159% and -0.2818% and 15.9197% and 2.836% and 1.425% and -4.261% and 10.2218% and -0.8382% and 19.3398%.
